Assay results from patent publication US20260048043A1, “HIGH LOADING ORAL FILM FORMULATION WITH IMPROVED BIOAVAILABILITY” (INTELGENX CORP., priority 2022, published 2026).

Test: Compatibility of maropitant with polyacid polymers (precipitate formation)
Assay type: physicochemical
Conditions: neutral pH

COc1ccc(C(C)(C)C)cc1CN[C@H]1C2CCN(CC2)[C@H]1C(c1ccccc1)c1ccccc1 [Maropitant, (2S,3S)-(Diphenylmethyl)-N-[2-methoxy-5-(2-methyl-2-propanyl)benzyl]quinuclidin-3-amine]
precipitate formation with polyacid polymer(s) such as CMC, Carbomer and polycarbophil: precipitate was formed
